Assay results: US10952992B2, “Methods of treating intraocular pressure with activators of Tie-2” (Aerpio Pharmaceuticals, Inc., priority 2015, dated 2021)
Where “and” joins values, the source holds several entries; their conditions need not be identical. Identical values can stand only once.

Tested on: intraocular pressure in normotensive New Zealand White rabbits
Assay: Example 3 intraocular pressure after repeated topical and subcutaneous administration (pneumotonometer)
Type: in vivo
Parameters: IOP, individual animal / IOP, group Average: unit not given here
Procedure: To measure the tolerability and effect of Compound 1 (sodium salt) on intraocular pressure following repeated topical and subcutaneous administration, normotensive New Zealand White rabbits were treated with Compound 1 (sodium salt). Animals were acclimated 1 to 2 times per day to the intraocular pressure (IOP) measurement procedures prior to initiation of the study to determine baseline IOP levels. IOP acclimation was performed in the two weeks prior to study start for a total of 5 days. Animals with unacceptable IOP values were excluded from the study. Prior to taking all IOP measurements, 1 to 2 drops of a 0.5% proparacaine solution were applied to the eye as a topical anesthetic. OP measurements were performed with a pneumotonometer. Test and control formulations were administered to the animals once or twice daily topically into both eyes or subcutaneously starting on Day 1 according to TABLE 20 and TABLE 21 below. PM dosing, where applicable, was performed ˜8 hours after AM dosing. IOP measurements were performed twice (AM and PM) at baseline (prior to the start of dosing), twice (AM and PM) on Days 1 and 7, and once daily (AM) on Days 2-6 and Day 8. Prior to taking all IOP measurements, 1 to 2 drops of a 0.5% proparacaine solution were applied to the eye as a topical anesthetic. IOP measurements were performed with a pneumotonometer. AM IOP measurements were performed 2 hours after AM dosing; the only exceptions were Day 8 AM measurements, which were performed 24 hours after the final dose. PM IOP measurements were performed ˜5 hours (baseline and Day 1) or ˜4 hours (Day 7) after AM IOP measurements, prior to PM dosing, with at least 15 minutes elapsing between anesthetic application for PM IOP measurements and PM dosing. The final round of slit-lamp examinations was performed on Day 8.

[1] = Group 3: 1.2 mg/eye topical sodium salt BID, Day 5, AM, OD
[2] = Group 3: 1.2 mg/eye topical sodium salt BID, Day 5, AM, OS

SMILES: COC(=O)N[C@@H](Cc1ccccc1)C(=O)N[C@@H](Cc1ccc(NS(=O)(=O)O)cc1)c1csc(-c2cccs2)n1 [Compound 1]
- IOP, individual animal (Group 3: 1.2 mg/eye topical sodium salt BID, Day 4, AM, OS): 23.3 and 21.7 and 24.2 and 24.5
- IOP, group Average [1]: 21.5
- IOP, individual animal [1]: 21.5 and 18.8 and 22.3 and 21.2
- IOP, group Average [2]: 22.0
- IOP, individual animal [2]: 22.3 and 19.8 and 23.5 and 20.7
- IOP, group Average (Group 3: 1.2 mg/eye topical sodium salt BID, Day 6, AM, OD): 24.2
- IOP, group Average (Group 3: 1.2 mg/eye topical sodium salt BID, Day 6, AM, OS): 24.7
- IOP, group Average (Group 3: 1.2 mg/eye topical sodium salt BID, Day 7, AM, OD): 21.3
- IOP, group Average (Group 3: 1.2 mg/eye topical sodium salt BID, Day 7, AM, OS): 22.0
- IOP, group Average (Group 3: 1.2 mg/eye topical sodium salt BID, Day 7, PM, OD): 23.7
- IOP, group Average (Group 3: 1.2 mg/eye topical sodium salt BID, Day 7, PM, OS): 24.2
- IOP, group Average (Group 3: 1.2 mg/eye topical sodium salt BID, Day 8, AM (24 hours after final dose), OD): 23.4
- IOP, group Average (Group 3: 1.2 mg/eye topical sodium salt BID, Day 8, AM (24 hours after final dose), OS): 23.9
- IOP, group Average (Group 4: 1.2 mg/eye topical sodium salt QD, Day 1, AM, OD): 21.2
- IOP, group Average (Group 4: 1.2 mg/eye topical sodium salt QD, Day 1, AM, OS): 21.4
- IOP, group Average (Group 4: 1.2 mg/eye topical sodium salt QD, Day 1, PM, OD): 23.1
- IOP, group Average (Group 4: 1.2 mg/eye topical sodium salt QD, Day 1, PM, OS): 23.2
- IOP, group Average (Group 4: 1.2 mg/eye topical sodium salt QD, Day 2, AM, OD): 20.0
- IOP, group Average (Group 4: 1.2 mg/eye topical sodium salt QD, Day 2, AM, OS): 20.1
- IOP, group Average (Group 4: 1.2 mg/eye topical sodium salt QD, Day 3, AM, OD): 20.8
- IOP, group Average (Group 4: 1.2 mg/eye topical sodium salt QD, Day 3, AM, OS): 20.9
- IOP, group Average (Group 4: 1.2 mg/eye topical sodium salt QD, Day 4, AM, OD): 21.6
- IOP, group Average (Group 4: 1.2 mg/eye topical sodium salt QD, Day 4, AM, OS): 22.6
- IOP, group Average (Group 4: 1.2 mg/eye topical sodium salt QD, Day 5, AM, OD): 21.0
- IOP, group Average (Group 4: 1.2 mg/eye topical sodium salt QD, Day 5, AM, OS): 21.2
- IOP, group Average (Group 4: 1.2 mg/eye topical sodium salt QD, Day 6, AM, OD): 22.5
- IOP, group Average (Group 4: 1.2 mg/eye topical sodium salt QD, Day 6, AM, OS): 23.2
- IOP, group Average (Group 4: 1.2 mg/eye topical sodium salt QD, Day 7, AM, OD): 22.6
- IOP, group Average (Group 4: 1.2 mg/eye topical sodium salt QD, Day 7, AM, OS): 23.0
- IOP, group Average (Group 4: 1.2 mg/eye topical sodium salt QD, Day 7, PM, OD): 24.6
- IOP, group Average (Group 4: 1.2 mg/eye topical sodium salt QD, Day 7, PM, OS): 24.7
- IOP, group Average (Group 4: 1.2 mg/eye topical sodium salt QD, Day 8, AM (24 hours after final dose), OD): 22.7
- IOP, group Average (Group 4: 1.2 mg/eye topical sodium salt QD, Day 8, AM (24 hours after final dose), OS): 22.8
- IOP, group Average (Group 5: 10 mg/kg subcutaneous sodium salt BID, Day 1, AM, OD): 22.3
- IOP, group Average (Group 5: 10 mg/kg subcutaneous sodium salt BID, Day 1, AM, OS): 23.6
- IOP, group Average (Group 5: 10 mg/kg subcutaneous sodium salt BID, Day 1, PM, OD): 23.3
- IOP, group Average (Group 5: 10 mg/kg subcutaneous sodium salt BID, Day 1, PM, OS): 23.6
- IOP, group Average (Group 5: 10 mg/kg subcutaneous sodium salt BID, Day 2, AM, OD): 21.5
- IOP, group Average (Group 5: 10 mg/kg subcutaneous sodium salt BID, Day 2, AM, OS): 21.7
- IOP, group Average (Group 5: 10 mg/kg subcutaneous sodium salt BID, Day 3, AM, OD): 20.7
- IOP, group Average (Group 5: 10 mg/kg subcutaneous sodium salt BID, Day 3, AM, OS): 21.3
- IOP, group Average (Group 5: 10 mg/kg subcutaneous sodium salt BID, Day 4, AM, OD): 21.9
- IOP, group Average (Group 5: 10 mg/kg subcutaneous sodium salt BID, Day 4, AM, OS): 22.2
- IOP, group Average (Group 5: 10 mg/kg subcutaneous sodium salt BID, Day 5, AM, OD): 22.4
- IOP, group Average (Group 5: 10 mg/kg subcutaneous sodium salt BID, Day 5, AM, OS): 23.4
- IOP, group Average (Group 5: 10 mg/kg subcutaneous sodium salt BID, Day 6, AM, OD): 24.5
- IOP, group Average (Group 5: 10 mg/kg subcutaneous sodium salt BID, Day 6, AM, OS): 25.0
- IOP, group Average (Group 5: 10 mg/kg subcutaneous sodium salt BID, Day 7, AM, OD): 23.9
- IOP, group Average (Group 5: 10 mg/kg subcutaneous sodium salt BID, Day 7, AM, OS): 23.9
- IOP, group Average (Group 5: 10 mg/kg subcutaneous sodium salt BID, Day 7, PM, OD): 24.1
- IOP, group Average (Group 5: 10 mg/kg subcutaneous sodium salt BID, Day 7, PM, OS): 24.3
- IOP, group Average (Group 5: 10 mg/kg subcutaneous sodium salt BID, Day 8, AM (24 hours after final dose), OD): 24.5
- IOP, group Average (Group 5: 10 mg/kg subcutaneous sodium salt BID, Day 8, AM (24 hours after final dose), OS): 24.0
